Assay results: patent US9770430B2, “Desferrioxamine-metal complexes for the treatment of immune-related disorders” (priority 2009, dated 2017)

What was measured:
lens proteins = test: Lens proteins of high energy diet fed sand rats (total protein, Trx, TrxR, actin, Msr activity, ferritin); type: in vivo, sand rat (Psammomis obesus)
Experimental: (§1) Ferritin concentration was quantified using an indirect ‘sandwich’ ELISA assay in accordance with a procedure developed previously in our laboratory. Briefly, ELISA 96-well micro plates were pre-coated with goat anti-human L-ferritin antibody. Rabbit anti-human H-ferritin was used as the secondary antibody. Plates were treated with goat anti-rabbit IgG conjugated with β-galactosidase. Chlorophenol Red-β-D-Galactopyranoside was then added and the plates analyzed using a microplate reader with a test (570 nm) and reference (630 nm) filters.
Quantification of the activity of methionine-sulfoxide reductase (Msr) was carried out by incubation the tissue lysates with dabsyl-methionine sulfoxide for 30 min at 37° C., followed by analysis of the reduced product (dabsyl methionine) by HPLC-spectrophotometric detection at 436 nm Assay: total volume 100 μl, including 200 μM Dabsyl-met (O) (as a substrate). The reaction mixture contained also 20 mM DTT, buffer, ˜100 μg protein. The incubation (reaction) was stopped by adding 100 μl of acetonitrile, spinning down, and discarding the protein fraction. The chromatography was run on a 150 mm 3 μm C-18 column, using a gradient (A to B). A=19 g of sodium acetate, pH 6.0 plus 0.5 ml of triethylamine, in one liter of solution; B=acetonitrile (pure). The substrate, dabsyl-Met (0) was prepared as described [Moskovitz, J. et al. (2001) Proc Natl Acad Sci USA, 98 (23): p. 12920-5; Moskowitz et al. (1997) Proc Natl Acad Sci USA, 94 (18): p. 9585-93].
Nineteen sand rats were divided into three groups. Group I (n=4) received a standard diet and was used as a control. Groups II (n=7) and III (n=8) received a high energy diet, leading to diabetes development. Group III was treated with 2.5 mg Zn-DFO i.p. per kg body weight three times a week, while Group II was injected with saline according to the same pattern. After the blood glucose and body weight monitoring for 63 days, glucose tolerance test was performed and blood level of 2,3-DHBA and catechols was also measured. As previously done, cataract formation was tested as well. The retina and lens were collected for biochemical analysis of the concentration of ferritin, thioredoxin-1 (Trx) and thioredoxin reductase-1 (TrxR), total lens protein and methionine sulfoxide reductase (Msr) activity. The concentration of actin, Trx and TrxR were measured by Western Blotting, and the activity of Msr was analyzed by HPLC as described.

ovalbumin-induced asthma = test: Ovalbumin-induced asthma, prophylactic treatment model (lung ferritin); type: in vivo, BALB/c mice; conditions: asthmatic mice, 1 and 0.3 mg/kg i.p., then 0.3 mg/kg i.n.
Experimental: as §1
• Twelve-week-old Balb/c mice were administered 10 μg (100 μl) ovalbumin (OVA) dissolved with 3 mg Al(OH)3 in 0.9% saline intraperitoneally (i.p.) on days 0, 7 and 14, and 10 μg (50 μl) OVA intranasally (i.n.) on days 20, 23, 25, 27, 29, 31, 34, 36, 37, 41, 43 and 45. […]
To estimate the anti-asthmatic effect of the complexes the following parameters were measured: the concentration of ferritin in the lungs, the presence of inflammatory cells infiltration into the lungs, and the amounts of macrophages, eosinophils, lymphocytes and neutrophils in bronchoalveolar lavages (BALs).

[1] = Western Blotting, diabetes-induced decrease

With `CC(=O)N(O)CCCCCNC(=O)CCC(=O)N([O-])CCCCCNC(=O)CCC(=O)N([O-])CCCCCN.[Zn+2]` [Zn-DFO, Zinc-desferrioxamine] the “lens Msr activity” value (lens proteins; HPLC, diabetes-induced decrease) was “partial, but statistically significant restoration”, the “lens concentration of Trx” value (lens proteins; [1]) was “partial, but statistically significant restoration” and the “lens concentration of TrxR” value (lens proteins; [1]) was “partial, but statistically significant restoration”. For the same molecule, the “lens concentration of actin” value (lens proteins; [1]) was “partial, but statistically significant restoration”, the “total lens protein concentration (Bradford assay)” value (lens proteins; diabetes-induced decrease) was “partly prevented this decrease” and the “decrease in lens ferritin level” value (lens proteins; versus diabetic animals) was 3.8 fold. It also gave a lung ferritin level (ovalbumin-induced asthma) of 0.6 ± 0.2 µg/mg.
